Assay results taken from the supplement of paper PMC11061612.

How the values were obtained:
Test in all cases: Bliss excess, mean over the matrix (fraction); higher = more synergy
[1] = system: ST486 (Burkitt's Lymphoma)
Summary of the method: (§1)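 Cell lines in DMEM/F12 or RPMI with 10% FBS were plated in 1536-well plates, held 24 hours at 37°C, 5% CO2, then given two-drug dose matrices for 72 hours (DMSO typically 0.2%). Viability was read by CellTiter-Glo 2.0 luminescence and scaled as inhibition from 0 (vehicle wells) to 1 (blank wells). Combination Emax is the second-highest inhibition in the matrix; Bliss excess is observed combination effect minus expected EA + EB − EA·EB, EA and EB being single-agent effects.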

[2] = system: NCI-H929 (Plasma Cell Myeloma)
Summary of the method: as §1

[3] = system: KMS-12-BM (Plasma Cell Myeloma)
Summary of the method: as §1

[4] = system: SJSA-1 (Osteosarcoma)
Summary of the method: as §1

[5] = system: SNU-398 (Hepatocellular Carcinoma)
Summary of the method: as §1

[6] = system: HCC1187 (Breast Carcinoma)
Summary of the method: as §1

[7] = system: RD (Rhabdomyosarcoma)
Summary of the method: as §1

[8] = system: MOG-G-CCM (Low Grade Glioma)
Summary of the method: as §1

[9] = system: DMS-114 (Small Cell Lung Carcinoma)
Summary of the method: as §1

[10] = system: RPMI-8226 (Plasma Cell Myeloma)
Summary of the method: as §1

[11] = system: KY821 (Acute Myeloid Leukemia)
Summary of the method: as §1

[12] = system: HCC1419 (Breast Carcinoma)
Summary of the method: as §1

[13] = system: MOLM-13 (Acute Myeloid Leukemia)
Summary of the method: as §1

[14] = system: KP-3 (Pancreatic Carcinoma)
Summary of the method: as §1

[15] = system: NCI-H661 (Non-Small Cell Lung Carcinoma)
Summary of the method: as §1

[16] = system: NCI-H3122 (Lung Adenocarcinoma)
Summary of the method: as §1

[17] = system: 8505C (Thyroid Gland Carcinoma)
Summary of the method: as §1

[18] = system: NCI-H520 (Squamous Cell Lung Carcinoma)
Summary of the method: as §1

[19] = system: NCCIT (Other Solid Carcinomas)
Summary of the method: as §1

[20] = system: DAN-G (Pancreatic Carcinoma)
Summary of the method: as §1

| Compound | Bliss excess [1] | Bliss excess [2] | Bliss excess [3] | Bliss excess [4] | Bliss excess [5] | Bliss excess [6] | Bliss excess [7] | Bliss excess [8] | Bliss excess [9] | Bliss excess [10] | Bliss excess [11] | Bliss excess [12] | Bliss excess [13] | Bliss excess [14] | Bliss excess [15] | Bliss excess [16] | Bliss excess [17] | Bliss excess [18] | Bliss excess [19] | Bliss excess [20] |
| --- | --- | --- | --- | --- | --- | --- | --- | --- | --- | --- | --- | --- | --- | --- | --- | --- | --- | --- | --- | --- |
| COc1cc2ncnc(Nc3ccc(F)c(Cl)c3)c2cc1OCCCN1CCOCC1 [Gefitinib] + CC(C)n1c(=O)n(C)c2cnc3cc(F)c(-c4ccc(OCCCN5CCCCC5)nc4)cc3c21 [AZD1390] (first compound max 10 µM, 7x7, partner max 0.3 µM) | -0.0874 | -0.0092 | -0.0267 | -0.0562 | -0.0627 | -0.04 | -0.0699 | -0.0271 | -0.0579 | -0.0547 | -0.0553 | -0.0216 | -0.0462 | -0.074 | -0.097 | -0.0775 | -0.0691 | -0.0477 | -0.0466 |  |
| CC(=O)c1c(C)c2cnc(Nc3ccc(N4CCNCC4)cn3)nc2n(C2CCCC2)c1=O [Palbociclib] + Cn1cnc2c(F)c(Nc3ccc(Br)cc3Cl)c(C(=O)NOCCO)cc21 [Selumetinib] (first compound max 10 µM, 7x7, partner max 10 µM) | 0.151 | 0.0643 | 0.0219 | -0.038 | -0.0388 | -0.0142 | 0.0455 | -0.0511 | -0.0065 | 0.142 | 0.0803 |  | 0.0262 | -0.0328 | -0.0533 | -0.0306 | -0.0377 | -0.054 | -0.0291 | -0.0077 |
| NC1(C(=O)N[C@@H](CCO)c2ccc(Cl)cc2)CCN(c2ncnc3[nH]ccc23)CC1 [Capivasertib] + Cn1cnc2c(F)c(Nc3ccc(Br)cc3Cl)c(C(=O)NOCCO)cc21 [Selumetinib] (first compound max 10 µM, 7x7, partner max 10 µM) | 0.0217 | 0.0041 | 0.0441 | -0.0321 | 0.0287 | 0.0534 | 0.0942 | -0.0355 | 0.0203 | 0.0411 | 0.0177 |  | 0.0677 | 0.0087 | -0.0074 | 0.092 | 0.0302 | -0.015 | 0.059 | -0.002 |
| NC1(C(=O)N[C@@H](CCO)c2ccc(Cl)cc2)CCN(c2ncnc3[nH]ccc23)CC1 [Capivasertib] + CCN(CCO)CCCOc1ccc2c(Nc3cc(CC(=O)Nc4cccc(F)c4)[nH]n3)ncnc2c1 [AZD2811] (first compound max 10 µM, 7x7, partner max 1 µM) | -0.0396 | 0.025 | 0.0502 | -0.0297 | 0.0216 | -0.0597 | -0.0211 | -0.0373 | 0.0039 | -0.0101 | 0.052 |  | -0.0086 | -0.03 | -0.0058 | -0.0428 | 0.0134 | -0.004 | 0.0475 | 0.004 |
| CS(=O)(=O)CCNCc1ccc(-c2ccc3ncnc(Nc4ccc(OCc5cccc(F)c5)c(Cl)c4)c3c2)o1 [Lapatinib] + C[C@@H](Oc1cc(-c2cnn(C3CCNCC3)c2)cnc1N)c1c(Cl)ccc(F)c1Cl [Crizotinib] (first compound max 10 µM, 7x7, partner max 10 µM) | -0.0366 | -0.062 | 0.0256 | -0.017 | -0.0451 | -0.0156 | -0.0253 | -0.102 | -0.017 | -0.0127 | 0.0312 |  | 0.0308 | -0.0234 | -0.0252 | 0.0001 | -0.0441 | -0.0975 | 0.0045 | 0.0148 |
| CS(=O)(=O)CCNCc1ccc(-c2ccc3ncnc(Nc4ccc(OCc5cccc(F)c5)c(Cl)c4)c3c2)o1 [Lapatinib] + NC1(c2ccc(-c3nc4ccn5c(=O)[nH]nc5c4cc3-c3ccccc3)cc2)CCC1 [MK-2206] (first compound max 10 µM, 7x7, partner max 10 µM) | 0.0266 | -0.0278 |  | -0.0402 |  |  |  | -0.0681 | 0.0721 |  | 0.0724 |  |  | -0.0194 |  | -0.0497 |  | 0.0011 | -0.0143 |  |
| NC1(C(=O)N[C@@H](CCO)c2ccc(Cl)cc2)CCN(c2ncnc3[nH]ccc23)CC1 [Capivasertib] + C[C@@H]1COCCN1C2=NC(=NC(=C2)C3(CC3)[S@](=N)(=O)C)C4=C5C=CNC5=NC=C4 [AZD6738] (first compound max 10 µM, 7x7, partner max 10 µM) | -0.0785 | -0.0009 | 0.0398 | -0.0414 | -0.0748 | -0.0292 | -0.0453 | -0.0929 | -0.0067 | -0.0344 | -0.0558 |  | -0.02 | -0.0499 | -0.0645 | -0.0758 | -0.0138 | -0.0357 | -0.0139 | -0.0679 |
| Cc1nc(Nc2ncc(C(=O)Nc3c(C)cccc3Cl)s2)cc(N2CCN(CCO)CC2)n1 [Dasatinib] + CC(=O)Nc1cccc(-n2c(=O)n(C3CC3)c(=O)c3c(Nc4ccc(I)cc4F)n(C)c(=O)c(C)c32)c1 [Trametinib] (first compound max 2 µM, 7x7, partner max 1 µM) | -0.0987 | -0.075 | -0.0046 | 0.0005 | -0.0842 | -0.0367 | 0.188 | -0.0782 | -0.0036 | 0.0121 | -0.144 |  | 0.0284 | 0.0304 | -0.0528 | -0.0651 | 0.0809 | -0.0488 | -0.0842 | 0.138 |
| NC1(C(=O)N[C@@H](CCO)c2ccc(Cl)cc2)CCN(c2ncnc3[nH]ccc23)CC1 [Capivasertib] + CC(C)n1c(=O)n(C)c2cnc3cc(F)c(-c4ccc(OCCCN5CCCCC5)nc4)cc3c21 [AZD1390] (first compound max 10 µM, 7x7, partner max 0.3 µM) | -0.0363 | -0.0187 | -0.0274 | -0.0843 | -0.0579 | -0.0424 | -0.0146 | -0.0302 | -0.0465 | -0.0096 | -0.021 |  | -0.067 | -0.0596 | -0.0692 | -0.0304 | -0.0376 | -0.0559 | -0.0628 | -0.111 |
| NC1(C(=O)N[C@@H](CCO)c2ccc(Cl)cc2)CCN(c2ncnc3[nH]ccc23)CC1 [Capivasertib] + COc1nnc2ccc(N3CCC(c4ccc(OCCN5CCN(C)C(=O)[C@H]5C)cc4)CC3)nn12 [AZD5153] (first compound max 10 µM, 7x7, partner max 1 µM) | -0.0552 | -0.008 | 0.0409 | -0.0184 | 0.0733 | 0.0491 | 0.0116 | 0.0151 | 0.0259 | 0.0244 | -0.0351 |  | 0.0145 | 0.0226 | 0.0687 | -0.0131 | 0.0008 | 0.0497 | 0.0382 | 0.0578 |
| CC(=O)c1c(C)c2cnc(Nc3ccc(N4CCNCC4)cn3)nc2n(C2CCCC2)c1=O [Palbociclib] + Cc1c2c(nn1C)CSCc1cc(n(C)n1)CSc1cc(c3ccccc3c1)OCCCc1c(C(=O)O)n(C)c3c-2c(Cl)ccc13 [AZD5991] (first compound max 10 µM, 7x7, partner max 1 µM) | -0.0457 | 0.0099 | 0.035 | -0.0426 | 0.0128 | 0.0023 | 0.0077 | -0.0595 | -0.0083 | -0.0191 | -0.0372 |  | -0.0314 | -0.0436 | -0.0443 | -0.0217 | -0.175 | 0.0024 | -0.0538 | -0.0356 |
| CC(=O)c1c(C)c2cnc(Nc3ccc(N4CCNCC4)cn3)nc2n(C2CCCC2)c1=O [Palbociclib] + CC1(C)CCC(CN2CCN(c3ccc(C(=O)NS(=O)(=O)c4ccc(NCC5CCOCC5)c([N+](=O)[O-])c4)c(Oc4cnc5[nH]ccc5c4)c3)CC2)=C(c2ccc(Cl)cc2)C1 [Venetoclax] (first compound max 10 µM, 7x7, partner max 1 µM) | -0.0755 | -0.112 | 0.0637 | -0.0295 | 0.0232 | -0.0079 | -0.0486 | -0.0493 | -0.0282 | 0.0461 | 0.0485 |  | 0.04 | -0.0533 | -0.0593 | -0.0335 | -0.0584 | -0.0209 | -0.0412 | -0.0324 |
| CS(=O)(=O)CCNCc1ccc(-c2ccc3ncnc(Nc4ccc(OCc5cccc(F)c5)c(Cl)c4)c3c2)o1 [Lapatinib] + Cn1cnc2c(F)c(Nc3ccc(Br)cc3Cl)c(C(=O)NOCCO)cc21 [Selumetinib] (first compound max 10 µM, 7x7, partner max 10 µM) | 0.0111 | 0.0271 |  | -0.0364 |  |  |  | -0.0433 | -0.044 |  |  |  |  | 0.0488 |  | 0.0083 |  | -0.034 | -0.0596 |  |
| NC1(C(=O)N[C@@H](CCO)c2ccc(Cl)cc2)CCN(c2ncnc3[nH]ccc23)CC1 [Capivasertib] + CC(=O)c1c(C)c2cnc(Nc3ccc(N4CCNCC4)cn3)nc2n(C2CCCC2)c1=O [Palbociclib] (first compound max 10 µM, 7x7, partner max 10 µM) | -0.0616 | -0.0066 | 0.0977 | -0.0445 | -0.057 | 0.0279 | -0.0333 | -0.0389 | -0.0203 | 0.01 | -0.0078 |  | -0.0098 | -0.0372 | 0.0204 | 0.0266 | -0.0475 | 0.0018 | 0.0183 | -0.0581 |
| CCc1c2c(nc3ccc(O)cc13)-c1cc3c(c(=O)n1C2)COC(=O)[C@]3(O)CC [SN-38] + O=C(c1cc(Cc2n[nH]c(=O)c3ccccc23)ccc1F)N1CCN(C(=O)C2CC2)CC1 [Olaparib] (first compound max 0.3 µM, 7x7, partner max 10 µM) | 0.0826 | 0.0505 |  | 0.0423 | 0.0008 | 0.0419 |  | 0.099 | 0.0741 |  | 0.0503 |  |  | -0.0338 | 0.0696 | 0.0685 | 0.0498 | 0.0654 | 0.0062 |  |
